Laboratory results reported in PubChem BioAssay AID1963843 (Molecular Pharmacology Branch, DTP, NCI, 2024).
Where “and” joins values, the source holds several entries; their conditions need not be identical. Equal values may be shown once.

System: 616215-338-R-J1-PDC complex spheroid viability
Assay: Anticancer human tumor 616215-338-R-J1-PDC patient-derived colon adenocarcinoma cell line growth inhibition [POLQ]
Details: for viability, T/C: stronger effect = lower value
Method: Multicellular complex tumor spheroid response to Polymerase (POL) inhibitors (novobiocin, ART-558, RP6685) in combination with a variety of drugs and investigational agents in selected tumor cell lines
The POL inhibitors (novobiocin, ART-558, and RP6685) were evaluated both individually and in combination with standard of care and investigational anticancer small molecules within a complex spheroid model of solid tumors. . Complex spheroids include a stromal component modeled by human endothelial cells (HUVEC) and fibroblasts modeled by human mesenchymal stem cells (MSCs). The concentration ranges selected for each drug and investigational agent were based upon clinically achievable concentrations if the clinical Cmax of the agent was known.
Compounds. The drugs and investigational agents: novobiocin (NSC847541), ART-558 (NSC835418), RP-6685 (NSC848927), peposertib (NSC802822), ceralasertib (NSC780249), elimusertib (NSC800525), camonsertib (NSC841442), AZD-1390 (NSC803789), olaparib (NSC753686), talazoparib (NSC767125), rucaparib (NSC756644), sotorasib (NSC818433), MRTX-1133 (NSC836407), SN-38 (NSC673596), topotecan (NSC609699), epotoside (NSC141540), doxorubicin (NSC123127), gemcitabine (NSC613327), 5-fluorouracil (NSC19893), paclitaxel (NSC125973), vemurafenib (NSC761431), MSA-2 (NSC828583), SN-011 (NSC837082), adavosertib (NSC754352), prexasertib (NSC758257), carboplatin (NSC241240) and oxaliplatin (NSC266046), were obtained from the National Cancer Institute (NCI) Developmental Therapeutics Program Chemical Repository (21). The FDA-approved anticancer drug set is available from the Developmental Therapeutics Program at https://dtp.cancer.gov/organization/dscb/obtaining/. […] The stock solutions were prepared in dimethyl sulfoxide (DMSO, Sigma-Aldrich, St. Louis, MO, cat. D2650), except for the platinum compounds which were prepared in saline (Quality Biological, Gaithersburg, MD, cat. 114-055-101), at 800-fold the tested concentration and stored at -70 degrees C prior to their use. All drugs and investigational agents were tested over a range starting from a high concentration at or near the clinical Cmax and decreasing in half-log increments. If the clinical Cmax for an agent had not been determined, the highest concentration tested was 10 microM, except for SN-38, which was tested at a high concentration of 1 microM.
Cell Culture. All cells were maintained in an incubator at 37 degrees C and 5% CO2 with 95% humidity. The PDC lines were cultured according to standard operating procedures established by the NCI PDMR (https://pdmr.cancer.gov). Table 3 of the manuscript, lists the cell lines along with the number of the three cell types plated to form the mct-spheroids and media for tumor cell growth. After thawing, all PDC lines, except 997537-175-T-J1-PDC and 415267-285-R-J2-PDC, were cultured in Matrigel-coated flasks prepared with a working solution of 1X Ham's F-12 nutrient mix, without supplementation (Thermo Fisher Scientific, cat. 11765054), 100 U/mL penicillin-streptomycin (Thermo Fisher Scientific, cat. 15140122), and 2.5% Matrigel (Corning Inc., Corning, NY, cat. 354248) for the first three passages. The two PDC lines 997537-175-T-J1-PDC and 415267-285-R-J2-PDC were cultured on uncoated flasks. The 857933-349-R-J2-PDC line was cultured in 6C/Colon 1B media containing advanced DMEM/F-12 (Thermo Fisher Scientific, cat. 12634028), 10 mM HEPES (Thermo Fisher Scientific, cat. 15630080), 1X GlutaMAX supplement (Thermo Fisher Scientific, cat. 35050061), 0.1 mg/mL primocin (InvivoGen, San Diego, CA, cat. ant-pm-2), 10% defined fetal bovine serum, heat inactivated (HyClone Laboratories Inc., Logan, UT, cat. SH30070.03HI), 50% L-WRN conditioned media (ATCC, cat. CRL-3276), 1.25 mM N-Acetyl-L-cysteine (Sigma-Aldrich, cat. A9165), 10 mM nicotinamide (Sigma-Aldrich, cat. N0636), 1X B-27 supplement (Thermo Fisher Scientific, cat. 17504044), 1X N-2 supplement (Thermo Fisher Scientific, cat. […]

[1] = curve of first compound, second compound 0.0316 µM
[2] = curve of first compound, second compound 0.1 µM
[3] = curve of first compound, second compound 0.316 µM
[4] = curve of first compound, second compound 1 µM
[5] = curve of first compound, second compound 3.16 µM
[6] = curve of first compound, second compound 10 µM
[7] = second compound 0.0316 µM, first compound 0.0316 µM
[8] = second compound 0.0316 µM, first compound 0.1 µM
[9] = second compound 0.0316 µM, first compound 0.316 µM
[10] = second compound 0.0316 µM, first compound 1 µM
[11] = second compound 0.1 µM, first compound 0.0316 µM
[12] = second compound 0.1 µM, first compound 0.1 µM
[13] = second compound 0.1 µM, first compound 0.316 µM
[14] = second compound 0.1 µM, first compound 1 µM
[15] = second compound 0.316 µM, first compound 0.0316 µM
[16] = second compound 0.316 µM, first compound 0.1 µM
[17] = second compound 0.316 µM, first compound 0.316 µM
[18] = second compound 0.316 µM, first compound 1 µM
[19] = second compound 1 µM, first compound 0.0316 µM
[20] = second compound 1 µM, first compound 0.1 µM
[21] = second compound 1 µM, first compound 0.316 µM
[22] = second compound 1 µM, first compound 1 µM
[23] = second compound 3.16 µM, first compound 0.0316 µM
[24] = second compound 3.16 µM, first compound 0.1 µM
[25] = second compound 3.16 µM, first compound 0.316 µM
[26] = second compound 3.16 µM, first compound 1 µM
[27] = second compound 10 µM, first compound 0.0316 µM
[28] = second compound 10 µM, first compound 0.1 µM
[29] = second compound 10 µM, first compound 0.316 µM
[30] = second compound 10 µM, first compound 1 µM
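Further: spheroids exposed to compounds for one week before readout.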
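Wherever viability, T/C is given: percent viability relative to DMSO vehicle wells taken as 100%.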

CCc1cc2c(N3CCc4c(cc(Cn5ccnc5)cc4-c4cn(C)nc4C(F)(F)F)C3=O)ccnc2c(OC)n1 + COC1C(OC(N)=O)C(O)C(Oc2ccc3c(O)c(NC(=O)c4ccc(O)c(CC=C(C)C)c4)c(=O)oc3c2C)OC1(C)C
IC50 [1]: > 10000 nM
IC50 [2]: > 10000 nM
IC50 [3]: > 10000 nM
IC50 [4]: 9750 nM
IC50 [5]: 9640 nM
IC50 [6]: 8330 nM
viability, T/C [7]: 97.2%
viability, T/C [8]: 108%
viability, T/C [9]: 111%
viability, T/C [10]: 106%
viability, T/C (second compound 0.0316 µM, first compound 3.16 µM): 80%
viability, T/C (second compound 0.0316 µM, first compound 10 µM): 52.8%
viability, T/C [11]: 106%
viability, T/C [12]: 108%
viability, T/C [13]: 92.9%
viability, T/C [14]: 106%
viability, T/C (second compound 0.1 µM, first compound 3.16 µM): 77%
viability, T/C (second compound 0.1 µM, first compound 10 µM): 50.3%
viability, T/C [15]: 96%
viability, T/C [16]: 103%
viability, T/C [17]: 115%
viability, T/C [18]: 102%
viability, T/C (second compound 0.316 µM, first compound 3.16 µM): 66.5%
viability, T/C (second compound 0.316 µM, first compound 10 µM): 53.8%
viability, T/C [19]: 105%
viability, T/C [20]: 98.7%
viability, T/C [21]: 99%
viability, T/C [22]: 100%
viability, T/C (second compound 1 µM, first compound 3.16 µM): 81.4%
viability, T/C (second compound 1 µM, first compound 10 µM): 49.3%
viability, T/C [23]: 106%
viability, T/C [24]: 100%
viability, T/C [25]: 103%
viability, T/C [26]: 98.2%
viability, T/C (second compound 3.16 µM, first compound 3.16 µM): 74.8%
viability, T/C (second compound 3.16 µM, first compound 10 µM): 49.2%
viability, T/C [27]: 109%
viability, T/C [28]: 97.7%
viability, T/C [29]: 102%
viability, T/C [30]: 93.1%
viability, T/C (second compound 10 µM, first compound 3.16 µM): 67.7%
viability, T/C (second compound 10 µM, first compound 10 µM): 46.7%

CCc1c2c(nc3ccc(O)cc13)-c1cc3c(c(=O)n1C2)COC(=O)[C@]3(O)CC + Cc1cccc(N(C)C(=O)C2C(O)CCN2c2nc(C)cc(C(F)(F)F)c2C#N)c1
IC50 [1]: 87.2 nM
IC50 [2]: 91.2 nM
IC50 [3]: 84.5 nM
IC50 [4]: 78.6 nM
IC50 [5]: 65.9 nM
IC50 [6]: 47.4 nM
viability, T/C (second compound 0.0316 µM, first compound 0.00316 µM): 104%
viability, T/C (second compound 0.0316 µM, first compound 0.01 µM): 97%
viability, T/C [7]: 72.8%
viability, T/C [8]: 49.3%
viability, T/C [9]: 24.6%
viability, T/C [10]: 20.8%
viability, T/C (second compound 0.1 µM, first compound 0.00316 µM): 114%
viability, T/C (second compound 0.1 µM, first compound 0.01 µM): 90.5%
viability, T/C [11]: 71.9%
viability, T/C [12]: 44.5%
viability, T/C [13]: 33.5%
viability, T/C [14]: 16.1%
viability, T/C (second compound 0.316 µM, first compound 0.00316 µM): 109%
viability, T/C (second compound 0.316 µM, first compound 0.01 µM): 87.1%
viability, T/C [15]: 69.7%
viability, T/C [16]: 48.1%
viability, T/C [17]: 26.9%
viability, T/C [18]: 18.6%
viability, T/C (second compound 1 µM, first compound 0.00316 µM): 111%
viability, T/C (second compound 1 µM, first compound 0.01 µM): 92.9%
viability, T/C [19]: 79.9%
viability, T/C [20]: 40.1%
viability, T/C [21]: 26%
viability, T/C [22]: 18.7%
viability, T/C (second compound 3.16 µM, first compound 0.00316 µM): 116%
viability, T/C (second compound 3.16 µM, first compound 0.01 µM): 80.7%
viability, T/C [23]: 67.8%
viability, T/C [24]: 41.6%
viability, T/C [25]: 27.5%
viability, T/C [26]: 22.1%
viability, T/C (second compound 10 µM, first compound 0.00316 µM): 97.7%
viability, T/C (second compound 10 µM, first compound 0.01 µM): 68.7%
viability, T/C [27]: 62.3%
viability, T/C [28]: 39%
viability, T/C [29]: 25%
viability, T/C [30]: 23.1%

COc1cccc(OCCCN)c1-c1cc(Nc2cnc(C#N)cn2)n[nH]1
viability, T/C (compound 0.00316 µM): 95.5% and 106% and 104%
viability, T/C (compound 0.01 µM): 101% and 98.7% and 97.4%
viability, T/C (compound 0.0316 µM): 88.6% and 68.9% and 76.7%
viability, T/C (compound 0.1 µM): 86.1% and 63.8% and 55.3%
viability, T/C (compound 0.316 µM): 64.6% and 33.6% and 49.9%
viability, T/C (compound 1 µM): 55.9% and 30.1% and 34.7%
IC50 (curve of compound): > 1000 nM and 150 nM and 201 nM
